Read-outs that look alike come from different tables or passages of the source.
Key:
MOR (μ opioid receptor) = biological target: T1, MOR (μ opioid receptor) (Homo sapiens, UniProt P35372); assay: MOR radioligand binding ([3H]-DAMGO, HEK293 cell homogenates); conditions: Percent inhibition at 10,000 nM; [3H]-DAMGO
T1 construct: expressed in transfected cells; host or cells: HEK293
Description: (§1) Radioligand binding assays. Detailed protocols for the primary and secondary radioligand binding assays can be found in the National Institute of Mental Health's Psychoactive Drug Screening Program (NIMH PDSP) Assay Protocol Book (Roth, 2018). Briefly, primary and secondary radioligand binding assays are carried out in a final of volume of 125 μL per well in appropriate binding buffer. […] Total binding and nonspecific binding are determined in the absence and presence of 10 μM of appropriate reference compound (Naltrindole DOR, Salvinorin A KOR and DAMGO MOR). In brief, plates are usually incubated at room temperature and in the dark for 90 min. Reactions are stopped by vacuum filtration onto 0.3% polyethyleneimine (PEI) soaked 96-well filter mats using a 96-well Filtermate harvester, followed by three washes with cold PBS buffer. Scintillation cocktail is then melted onto the microwave-dried filters on a hot plate and radioactivity counted in a Microbeta counter. The data (n=6) were analyzed by nonlinear regression.
(§2) Ligand affinities were determined for KOR (κ opioid receptor), DOR (δ opioid receptor), and MOR (μ opioid receptor) using radioligand binding assays at a screening concentration of 10,000 nM. For these assays, cell homogenates from HEK293 cells that overexpressed KOR, MOR, and DOR were used in combination with [^3H]-U69593, [^3H]-DAMGO, and [^3H]-DADLE, respectively Compounds that exceeded more than 50% radioligand displacement were investigated further in concentration-dependent experiments to determine Ki values. Gamma aminobutyric acid type A receptor (GABAAR) binding was determined with rat brain homogenate and ^3H-flunitrazepam. Flunitrazepam binds GABAAR subtypes that consists of two α and two β subunits and one γ or δ subunit. Strong affinities to α1-3,5,6β1-3γ1-y/δ GABAARS have been reported for flunitrazepam. The […] GABAAR subtype expression in the brain includes 43% α1β2γ2, 15% α2β3γ2+8% α2βγ1, 10% α3β3γ2, 6% α4βγ/δ, 4% α5β3γ2, and 4% α6β2γ2/δ. Therefore, compounds with high affinity toward the synaptic benzodiazepine-sensitive receptors (BZR) predominately bind α1-3β2-3γ1-2 GABAARs. Alternatively, compounds with weak BZR binding might be selective for α4-6βγ/δ GABAARs.
(§3) Psychoactive Drug Screening Program. Detailed protocols for the primary and secondary radioligand binding assays can be found in the National Institute of Mental Health's Psychoactive Drug Screening Program (NIMH PDSP) Assay Protocol Book. Briefly, primary and secondary radioligand binding assays are carried out in a final of volume of 125 μL per well in appropriate binding buffer. The radioactive ligand concentration is close to the Kd. Total binding and nonspecific binding are determined in the absence and presence of 10 μM of appropriate reference compound, respectively. In brief, plates are usually incubated at room temperature and in the dark for 90 min. Reactions are stopped by vacuum filtration onto 0.3% polyethyleneimine (PEI) soaked 96-well filter mats using a 96-well Filtermate harvester, followed by three washes with cold PBS buffer. Scintillation cocktail is then melted onto the microwave-dried filters on a hot plate and radioactivity counted in a Microbeta counter. The data (n=6) were analyzed by nonlinear regression.

KOR (κ opioid receptor) = biological target: T2, KOR (κ opioid receptor) (Homo sapiens, UniProt P41145); assay: KOR radioligand binding ([3H]-U69593, HEK293 cell homogenates); conditions: for inhibition at 10 µM: Percent inhibition at 10,000 nM
T2 construct: expressed in transfected cells; host or cells: HEK293 (stably transfected)
T2 sequence (P41145 whole entry): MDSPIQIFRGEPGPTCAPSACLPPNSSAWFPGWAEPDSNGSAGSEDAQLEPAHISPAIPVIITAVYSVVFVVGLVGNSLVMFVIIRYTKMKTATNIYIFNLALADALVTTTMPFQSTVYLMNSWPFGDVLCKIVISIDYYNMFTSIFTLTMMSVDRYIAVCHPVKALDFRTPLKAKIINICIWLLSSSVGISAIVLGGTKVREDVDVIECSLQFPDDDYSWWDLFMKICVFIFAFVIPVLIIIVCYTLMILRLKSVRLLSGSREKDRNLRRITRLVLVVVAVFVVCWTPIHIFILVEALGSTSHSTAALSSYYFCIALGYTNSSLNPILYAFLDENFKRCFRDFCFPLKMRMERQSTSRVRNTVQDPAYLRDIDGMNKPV
Description: as §1, §2, §3

[1] = system: BZR (benzodiazepine site of GABAAR); assay: GABAAR/BZR binding, rat brain homogenate with 3H-flunitrazepam; conditions: rat brain homogenate, 3H-flunitrazepam; for BZR %: Percent inhibition at 10,000 nM
Description: as §2, §3

DOR (δ opioid receptor) = biological target: T3, DOR (δ opioid receptor) (Homo sapiens, UniProt P41143); assay: DOR radioligand binding ([3H]-DADLE, HEK293 cell homogenates); conditions: Percent inhibition at 10,000 nM; [3H]-DADLE
T3 construct: expressed in transfected cells; host or cells: HEK293
T3 sequence (P41143 whole entry): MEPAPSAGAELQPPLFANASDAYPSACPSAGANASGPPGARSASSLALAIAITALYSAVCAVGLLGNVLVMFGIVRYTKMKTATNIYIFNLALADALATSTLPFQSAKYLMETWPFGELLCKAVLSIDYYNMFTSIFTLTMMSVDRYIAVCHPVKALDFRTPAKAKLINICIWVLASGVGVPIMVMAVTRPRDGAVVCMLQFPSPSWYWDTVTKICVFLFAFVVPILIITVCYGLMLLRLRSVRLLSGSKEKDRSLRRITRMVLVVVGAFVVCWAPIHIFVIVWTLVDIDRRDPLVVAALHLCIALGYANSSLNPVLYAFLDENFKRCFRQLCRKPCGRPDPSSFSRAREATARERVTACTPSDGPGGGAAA
Description: as §1, §2, §3

Mouse microglia = assay: NO production (Griess assay), LPS/IFNγ-activated mouse microglia; format: cell-based; conditions: with 50 μM MP-IV-010; flumazenil 50 μM, picrotoxin 50 μM, bicuculline 100 μM, SM-21 30 μM, norbinaltorphimine 30 μM
Description: Next, a library of GABAAR ligands was investigated to identify compounds that reduce the production of NO as a marker of anti-inflammatory activity. […] NO was quantified with a Greiss assay. Cell viability was determined with CellTiter-Glo.
Cell culture. A) HMC3 Microglia (CRL-3304) were maintained in treated cell culture flasks (Nunc, 156472) with EMEM (Corning, 10010CV) supplemented with 10% heat-inactivated FBS (Corning, 35011CV) and 100 U/mL penicillin and 100 μg/mL streptomycin (Hyclone, SV30010). Cultures were maintained at 37° C. and 5% CO2. When cells reached a density of 7×10^4 cells/mL, cultures were passaged with 0.25% Trypsin (Corning, 25-053-CI) and resuspended to a density no lower than 10,000 cells/mL. B) Human and mouse microglia cell lines were a gift from Dr. David Alvarez-Carbonell at Case Western Reserve University (Cleveland, OH). Microglia were cultured in cell culture treated flasks (Nunc, 156472) with DME/F12 media (Hyclone, SH30023.01) supplemented with 10% heat-inactivated FBS (Corning, 35011CV), 100 U/mL penicillin/100 μg/mL streptomycin (Hyclone, SV30010), and Normocin (Invivogen, ant-nr). Cultures were maintained at 37° C. and 5% CO2. […] Cultures were maintained at 37° C. and 5% CO2. Cells were passaged when they reached a density of approximately 3×10^6 cells/mL using cell scrapers (VWR, 10062-906) to lift cells from flask surface and resuspended at densities of approximately 500,000 cells/mL.
Nitric oxide production (Griess assay) and viability assay (CellTiter-Glo). 80 μL of mouse microglia culture (1×10^6 cells/mL) was plated into sterile 384 well plates representing non-activated wells. The remaining culture was activated with 50 ng/ml LPS (Invivogen, NC9836) and 150 U/mL IFNγ (R&D Systems, 485MI100) and distributed into the 384 well plates. […] Assay plates were incubated for approximately 24 hours (unless otherwise noted) at 37° C., centrifuged, and 40 μL of supernatant transferred to a new plate for analysis using the Griess Assay (Promega, Madison, WI). Absorbance at 530 nm was measured using a TECAN Infinite M1000 plate reader. The remaining 40 μL containing cells was analyzed for toxicity by the CellTiter-Glo Assay (Promega, Madison, WI). Luminescence was read using a TECAN Infinite M1000 plate reader.

[2] = concentration-dependent, [3H]-U69593, read-out: KOR (Ki)

T1 sequence (P35372 whole entry, species assumed): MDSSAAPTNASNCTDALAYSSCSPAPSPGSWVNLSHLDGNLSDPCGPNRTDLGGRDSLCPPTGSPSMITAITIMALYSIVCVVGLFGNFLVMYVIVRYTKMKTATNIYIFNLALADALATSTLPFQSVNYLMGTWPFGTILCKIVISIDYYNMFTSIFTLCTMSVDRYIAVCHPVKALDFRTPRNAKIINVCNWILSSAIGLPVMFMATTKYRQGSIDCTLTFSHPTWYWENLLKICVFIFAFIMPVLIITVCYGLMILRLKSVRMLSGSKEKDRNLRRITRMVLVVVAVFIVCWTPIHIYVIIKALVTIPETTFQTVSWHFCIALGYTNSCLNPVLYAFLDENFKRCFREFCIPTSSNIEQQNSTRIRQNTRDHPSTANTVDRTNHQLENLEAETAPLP

Compound	inhibition at 10 µM (MOR (μ opioid receptor)) [%]	inhibition at 10 µM (KOR (κ opioid receptor); [3H]-U69593) [%]	Ki (KOR (κ opioid receptor); [2]) [nM]	BZR % [1] [%]	Ki [1] [nM]	inhibition at 10 µM (DOR (δ opioid receptor)) [%]	Ki (KOR (κ opioid receptor)) [nM]	KOR affinity (in words) (KOR (κ opioid receptor); radioligand binding)	reversal of the NO reduction by MP-IV-010 (in words) (Mouse microglia)
C#Cc1ccc2c(c1)C(c1ccccc1F)=N[C@@H](C)c1c(C(=O)OC(C)C)ncn1-2 [GL-I-31]	32	94	65	97	245	8			
C#Cc1ccc2c(c1)C(c1ccccc1F)=N[C@@H](C)c1c(C(=O)OCCC)ncn1-2 [GL-I-32]	9	95	64	98	148	14			
C#Cc1ccc2c(c1)C(c1ccccc1F)=N[C@@H](C)c1c(C(=O)OC(C)(C)CC)ncn1-2 [GL-I-33]	30	94	34	96	117	25			
C#Cc1ccc2c(c1)C(c1ccccc1F)=N[C@@H](C)c1c(C(=O)OCC(F)(F)F)ncn1-2 [GL-I-36]	8	85	411	77	418	0			
C#Cc1ccc2c(c1)C(c1ccccc1F)=N[C@@H](C)c1c(C(=O)OC3CC3)ncn1-2 [GL-I-38]	18	95	68	96	127	16			
C#Cc1ccc2c(c1)C(c1ccccc1F)=N[C@@H](C)c1c(C(=O)NC(C)(C)C)ncn1-2 [GL-I-41]	40	97	39	90	140	10			
C#Cc1ccc2c(c1)C(c1ccccc1F)=N[C@@H](C)c1c(C(=O)NCC)ncn1-2 [GL-I-43]	22	95	102	94	44	3			
C#Cc1ccc2c(c1)C(c1ccccc1F)=N[C@@H](C)c1c(C(=O)N(C)C)ncn1-2 [GL-I-54]	18	78	788	94	90	11			
C#Cc1ccc2c(c1)C(c1ccccc1F)=N[C@@H](C)c1c(C(=O)NC3CC3)ncn1-2 [GL-I-55]	17	93	150	95	20	24			
C#Cc1ccc2c(c1)C(c1ccccc1F)=N[C@@H](C)c1c(C(=O)SCC)ncn1-2 [GL-I-77]	41	95	125	92	124	4			
CCOC(=O)c1ncn2c1[C@H](C)N=C(c1ccccc1F)c1cc(C3CC3)ccc1-2 [GL-I-78]	32	96		76	352	41	48		
C#Cc1ccc2c(c1)C(c1ccccn1)=N[C@H](C)c1c(C(=O)O)ncn1-2 [GL-II-30]	20	0		65	431	4			
C#Cc1ccc2c(c1)C(c1ccccn1)=N[C@H](C)c1c(C(=O)NC)ncn1-2 [GL-II-31]	17	23		72	1700	3			
C#Cc1ccc2c(c1)C(c1ccccc1F)=N[C@H](C)c1c(C(=O)N(C)C)ncn1-2 [GL-II-73]	6	58	1190	75	506	0			
C#Cc1ccc2c(c1)C(c1ccccc1F)=N[C@H](C)c1c(C(=O)NCC)ncn1-2 [GL-II-74]	10	86	194	84	68	0			
C#Cc1ccc2c(c1)C(c1ccccc1F)=N[C@H](C)c1c(C(=O)NC3CC3)ncn1-2 [GL-II-75]	0	81	278	85	93	3			
C#Cc1ccc2c(c1)C(c1ccccc1F)=N[C@H](C)c1c(C(=O)N3CCCC3)ncn1-2 [GL-II-76]	0	80	371	43		0			
C[C@H]1N=C(c2ccccc2F)c2cc(Br)ccc2-n2cnc(C(=O)O)c21 [GL-II-93]	0	0		73	86	0		No KOR affinity was observed	
C#Cc1ccc2c(c1)C(c1ccccn1)=NCc1c(C(=O)OCC)ncn1-2 [Hz-166]	6	60	3820			49			
CCC(Oc1ccc(Cl)cc1)C(=O)OC1CC2CCC(C1)N2C (centres unmarked) [SM-21, reference compound]									no reversal
CCOC(=O)c1ncn2c1CN(C)C(=O)c1cc(F)ccc1-2 [flumazenil, Flumazenil, reference compound]									did not reverse
Oc1ccc2c3c1O[C@H]1c4[nH]c5c(c4C[C@@]4(O)[C@@H](C2)N(CC2CC2)CC[C@]314)C[C@@]1(O)[C@H]2Cc3ccc(O)c4c3[C@@]1(CCN2CC1CC1)[C@H]5O4 [norbinaltorphimine, reference compound]									reversed the effects of MP-IV-010
picrotoxin [reference compound]									did not reverse

Source: US20240279232A1, “USE OF SUBSTITUTED 5-(4-METHYL-6-PHENYL-4H-BENZO[F]IMIDAZO[1,5-A][1,4] DIAZEPIN-3-YL)-1,2,4-O[…] THE TREATMENT OF INFLAMMATORY CONDITIONS” (priority 2021, published 2024)
